Source: patent US12044651B2, “Sensor device and methods” (SCENTIAN BIO LIMITED, priority 2016, dated 2024)

How the values were obtained:
Type in all cases: binding
OR35a [1] = target: T1, OR35a (Drosophila melanogaster, UniProt Q9V3Q2); experiment: EIS sensor, Or35a nanodiscs on gold electrode (Example 4)
T1 sequence (Q9V3Q2 1-409): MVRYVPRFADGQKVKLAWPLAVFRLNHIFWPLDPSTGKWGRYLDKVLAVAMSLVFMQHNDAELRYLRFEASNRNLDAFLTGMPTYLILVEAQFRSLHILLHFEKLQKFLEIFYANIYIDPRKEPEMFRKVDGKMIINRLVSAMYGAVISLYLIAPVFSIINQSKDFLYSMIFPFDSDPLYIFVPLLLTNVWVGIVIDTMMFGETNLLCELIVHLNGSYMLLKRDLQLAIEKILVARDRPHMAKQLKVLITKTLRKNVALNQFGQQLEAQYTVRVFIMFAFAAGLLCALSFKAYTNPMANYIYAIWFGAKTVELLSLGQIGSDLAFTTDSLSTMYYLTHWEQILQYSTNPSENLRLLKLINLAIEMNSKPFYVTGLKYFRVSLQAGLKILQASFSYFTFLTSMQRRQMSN

OR35a [2] = target: T1, OR35a; experiment: CNT-FET sensor, OR35a nanodiscs via his-tag/Ni-NTA (Example 2); details: for real time source-drain current response: OR35a nanodiscs 1:10, E-2-hexenal at 64 pM, methyl hexanoate 70 nM to 500 μM
Or10a [3] = target: T2, Or10a (Drosophila melanogaster, UniProt Q9VYZ1); experiment: CNT-FET sensor covalently functionalized with OR10a nanodiscs (Example 3); details: for current response: increasing additions of ligand
T2 sequence (Q9VYZ1 1-406): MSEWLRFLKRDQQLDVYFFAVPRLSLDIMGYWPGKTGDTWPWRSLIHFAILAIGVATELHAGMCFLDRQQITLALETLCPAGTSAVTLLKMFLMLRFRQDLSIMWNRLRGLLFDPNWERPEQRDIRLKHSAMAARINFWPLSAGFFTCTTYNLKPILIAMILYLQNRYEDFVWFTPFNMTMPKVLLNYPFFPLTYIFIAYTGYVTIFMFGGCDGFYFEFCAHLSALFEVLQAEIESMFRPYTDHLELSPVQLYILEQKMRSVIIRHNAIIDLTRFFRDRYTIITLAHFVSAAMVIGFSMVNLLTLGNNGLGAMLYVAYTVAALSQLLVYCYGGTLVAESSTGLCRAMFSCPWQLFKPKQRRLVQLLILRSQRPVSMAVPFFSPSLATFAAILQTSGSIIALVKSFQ
Method: The dispersion was sonicated until a clear solution was obtained. The temperature was kept at 25° C. throughout the sonication process. The thiolpyridine solution was prepared by dissolving 10 mg of 2-Mercaptopyridine (99%, Sigma Aldrich) in 1 ml of methanol. The solution was spun coated on a polydimethylsiloxane (PDMS) surface at 2000 rpm for one minute. Before the spin coating process, the PDMS surface was cleaned by a 50 W Oxygen plasma for 1 minute to improve the wettability. The cleaned substrates were placed upside down on the PDMS surface for three minutes and washed in ethanol to remove the excess thiolpyridine molecules. Then the substrates were transferred into the CNT suspension and immersed into the suspension for 10 minutes. The samples were removed from the suspension and dipped into Ethanol for another 10 minutes to remove the thiolpyridine molecules in the SWNT network. The alignment markers were deposited by defining the markers by photolithography and thermal evaporation of 5 nm Chromium and 50 nm of Gold. The metal Lift off was done by acetone immersion for 15 minutes followed by an Isopropyl alcohol (IPA) wash and N2 blow dry. The result is a uniform thin film CNT network covering the entire substrate surface. The purification procedure is a variation on the one detailed in […] et al. 2013^14. […] The cell pellet was collected by centrifugation at 3800 g for 10 min at room temperature and then resuspended in 40 mL of resuspension buffer A (20 mM Tris/HCl pH 7.5, 100 mM NaCl, 1× protease inhibitor cocktail (Roche Diagnostics GmbH, Germany)), with 25 U/mL Benzonase, then lysed by two passes on an Emulsiflex C5 emulsifier (Avestin, Germany) at 10,000-15,000 psi. The sample was then centrifuged at 1000 g for 5 min to remove whole cells and nuclei. The supernatant was removed and spun at 100,000 g for 1 h at 4° C. The membrane pellet was resuspended in 40 mL of buffer A with 1% w/v detergent (Zwittergent 3-16) and rotated for 1 h at room temperature at 10 rpm. The sample was then centrifuged at 100,000 g for 1 h at 18° C. The supernatant was removed and loaded onto a 1 mL NiNTA column (GE Healthcare) where the zwittergent 3-16 detergent was exchanged to Fos-Choline 14 (FC-14). The column was washed in ten column volumes of buffer B (20 mM Tris/HCl pH 7.5, 3.6 mM FC-14) with 300 mM NaCl and 20 mM imidazole, and a further ten column volumes of buffer B with 100 mM NaCl and 50 mM imidazole. Protein was eluted with four column volumes buffer B with 100 mM NaCl and 500 mM imidazole. Purity was assessed on Coomassie stained SDS-PAGE gels and Western blotting. Purification was completed with a final size exclusion chromatography (SEC) step. […]

Or10a [4] = target: T2, Or10a; experiment: EIS sensor, Or10a nanodiscs on gold electrode (Example 4)
[5] = real time current measurement mode

Row | SMILES | LOD (OR35a [1]; EIS) | concentration to which the sensor demonstrates a response in real time (OR35a [2]; OR35a nanodisc functionalized CNT FET) | real time source-drain current response (OR35a [2]) | ΔI/I0 change (OR35a [2]; at 64 pM, OR35a nanodiscs 1:10 dilution) | EC50 (OR35a [2]; present study, Table 4) | Sensitivity limit (OR35a [2]; present study, Table 4) | concentration at which clear electronic response starts (OR35a [2]; [5]) | current response (Or10a [3]; nanodiscs 1:100 dilution) | EIS response to control ligand (Or10a [4]) | EIS response to control ligand (OR35a [1]) | limit of detection (Or10a [3]; nanodiscs 1:100 dilution) | concentration at which clear electronic response starts (Or10a [3]; [5]) | LOD (Or10a [4]; EIS)
1 | CCC/C=C/C=O [E2-hexenal] | < 1 fM | 64 pM | immediate large decrease | 10% | ~0.3 nM | 0.001 pM | 1 fM | no response | do not respond |  |  |  | 
2 | CCCCCC(=O)OC [methyl hexanoate] |  |  | no clear response |  |  |  |  |  |  |  |  |  | 
3 | COC(=O)c1ccccc1O [methyl salicylate] |  |  |  |  |  |  |  | consistently large decreases |  | does not respond | below 1 fM | 1 fM | 10 fM
